Test results: patent US11802259B2, “Process of reducing malodors on fabrics” (The Procter & Gamble Company, priority 2019, dated 2023)

Assay: Malodor Reduction Test Method (wash of body soil malodor test fabrics, SPME GC-MS of oxidation markers)
Settings: antioxidant at 0.035 wt % in detergent
Description: The following method is used to test the malodor reduction benefits of a composition.
Fatty acids and malodor markers are added into 100 ml glass gar with Teflon-lined cap according to Table A and mixed well using a vortex.
Provided the specified amount of each material according to Table B into a 200 mL glass jar with Teflon lined cap. Artificial body soil (ABS) is commercially available by Accurate Product Development; 2028 Bohlke Blvd, Fairfield, Ohio 45014.
Sixteen malodor test fabrics per wash load are prepared by applying 300 μl of Body soil malodor composition described in Table B to de-sized 2×5 inch white polycotton 50/50 (PCW50/50) swatches. 48 grams of liquid detergent to be tested (see, e.g., Example 1, Table 1, below) is added to Duet 9200 washing appliance set to Normal cycle; 77° F. wash cycle followed by a 60° F. rinse cycle. […]
The malodor reduction using ABS/Squalene malodor sensors are quantitatively determined by Gas Chromatography Mass Spectroscopy using an Agilent gas chromatograph 7890B equipped with a mass selective detector (5977B), a Chemstation quantitation package and a Gerstel multi-purpose sampler equipped with a solid phase micro-extraction (SPME) probe. […] Based on the partition coefficients (K at 80 C) of each component, the total nMol/L liter of 6-Methyl-5-hepten-2-one (K=3353), Trans-2-heptenal (K=3434), and 3-methyl-2-Butenal (K=1119) are calculated. […]

**Q.** With `Cc1c(C)c2c(c(C)c1O)CCC(C)(C(=O)O)O2` (stereo not shown) [Antioxidant 7, 3,4-dihydro-6-hydroxy-2,5,7,8-tetramethyl-2H-1-Benzopyran-2-carboxylic acid] as the compound, how does the “malodor reduction benefits (reduction in total oxidation markers)” value read?
**A.** did not provide benefits
